Laboratory results: ChEMBL document CHEMBL5038572, “Thermodynamic Dissection of Potency and Selectivity of Cytosolic Hsp90 Inhibitors” (J Med Chem, 2021)
Active and inactive are the calls of the source. No cut-off for these calls is given here.

Assays:
[1] = biological target: T1, Heat shock protein HSP 90-alpha (Homo sapiens, UniProt P07900); test: Binding affinity to human HSP90-alpha N-terminal domain assessed as dissociation constant at 100 uM at 25 degC by isothermal titration calorimetry
[2] = biological target: T1, Heat shock protein HSP 90-alpha; test: Binding affinity to human HSP90-alpha assessed as change in heat capacity at 20 to 30 degC by isothermal titration calorimetry
[3] = biological target: T1, Heat shock protein HSP 90-alpha; test: Inhibition of FITC-GDA binding to human HSP90-alpha incubated for 2 hrs followed by FITC-GDA addition and measured after 5 hrs by fluorescence polarization competitive binding assay
[4] = biological target: Heat shock protein HSP 90-beta (Homo sapiens, UniProt P08238); test: Binding affinity to human HSP90-beta by fluorescence polarization competitive binding assay
Heat shock protein HSP 90-beta, sequence (P08238 whole entry): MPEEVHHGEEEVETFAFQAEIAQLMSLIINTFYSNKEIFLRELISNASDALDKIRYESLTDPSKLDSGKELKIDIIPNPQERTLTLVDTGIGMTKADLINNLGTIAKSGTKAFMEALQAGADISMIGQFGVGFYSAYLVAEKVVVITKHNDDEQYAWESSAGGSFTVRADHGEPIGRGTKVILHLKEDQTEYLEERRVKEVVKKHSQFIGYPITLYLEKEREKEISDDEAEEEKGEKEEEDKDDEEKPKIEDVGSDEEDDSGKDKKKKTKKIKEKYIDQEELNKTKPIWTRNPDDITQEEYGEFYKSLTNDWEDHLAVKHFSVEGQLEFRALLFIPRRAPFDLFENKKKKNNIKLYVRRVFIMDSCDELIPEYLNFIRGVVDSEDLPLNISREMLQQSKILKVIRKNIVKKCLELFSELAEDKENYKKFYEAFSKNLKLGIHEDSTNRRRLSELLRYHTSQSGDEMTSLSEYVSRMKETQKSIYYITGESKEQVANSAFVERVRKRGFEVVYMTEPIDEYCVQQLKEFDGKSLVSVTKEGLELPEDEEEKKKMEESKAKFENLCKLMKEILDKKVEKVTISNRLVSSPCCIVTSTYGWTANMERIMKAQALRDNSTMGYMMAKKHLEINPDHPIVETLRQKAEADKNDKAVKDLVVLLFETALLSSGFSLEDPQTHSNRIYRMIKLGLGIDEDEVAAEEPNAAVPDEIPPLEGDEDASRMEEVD

Endoplasmin = Endoplasmin (Homo sapiens, UniProt P14625); test: Binding affinity to GRP94 (unknown origin) by fluorescence polarization competitive binding assay
Endoplasmin, sequence (P14625 whole entry): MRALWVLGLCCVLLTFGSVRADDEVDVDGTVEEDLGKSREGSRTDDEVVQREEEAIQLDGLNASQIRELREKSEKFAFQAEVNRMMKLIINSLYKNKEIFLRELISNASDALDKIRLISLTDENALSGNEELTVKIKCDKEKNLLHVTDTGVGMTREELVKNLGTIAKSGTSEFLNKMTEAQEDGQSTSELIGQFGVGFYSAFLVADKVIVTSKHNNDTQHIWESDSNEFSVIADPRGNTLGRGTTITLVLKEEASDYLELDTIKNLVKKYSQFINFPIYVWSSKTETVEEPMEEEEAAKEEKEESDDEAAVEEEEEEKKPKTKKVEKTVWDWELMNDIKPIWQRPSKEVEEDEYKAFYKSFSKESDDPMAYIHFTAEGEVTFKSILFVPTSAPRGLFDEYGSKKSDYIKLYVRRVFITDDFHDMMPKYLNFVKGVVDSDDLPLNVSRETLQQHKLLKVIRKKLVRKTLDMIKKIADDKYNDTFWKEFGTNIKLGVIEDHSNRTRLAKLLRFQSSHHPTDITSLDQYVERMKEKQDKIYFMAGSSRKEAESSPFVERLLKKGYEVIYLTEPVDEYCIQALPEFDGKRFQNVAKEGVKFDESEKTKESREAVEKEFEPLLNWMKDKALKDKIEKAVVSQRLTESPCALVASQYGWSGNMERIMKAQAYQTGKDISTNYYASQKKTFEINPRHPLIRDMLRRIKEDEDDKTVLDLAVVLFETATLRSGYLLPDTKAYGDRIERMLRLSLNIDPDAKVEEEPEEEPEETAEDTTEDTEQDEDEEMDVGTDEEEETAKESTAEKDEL

[5] = biological target: T2, Heat shock protein 75 kDa, mitochondrial (Homo sapiens, UniProt Q12931); test: Binding affinity to TRAP1 (unknown origin) by fluorescence polarization competitive binding assay
T2 sequence (Q12931 whole entry): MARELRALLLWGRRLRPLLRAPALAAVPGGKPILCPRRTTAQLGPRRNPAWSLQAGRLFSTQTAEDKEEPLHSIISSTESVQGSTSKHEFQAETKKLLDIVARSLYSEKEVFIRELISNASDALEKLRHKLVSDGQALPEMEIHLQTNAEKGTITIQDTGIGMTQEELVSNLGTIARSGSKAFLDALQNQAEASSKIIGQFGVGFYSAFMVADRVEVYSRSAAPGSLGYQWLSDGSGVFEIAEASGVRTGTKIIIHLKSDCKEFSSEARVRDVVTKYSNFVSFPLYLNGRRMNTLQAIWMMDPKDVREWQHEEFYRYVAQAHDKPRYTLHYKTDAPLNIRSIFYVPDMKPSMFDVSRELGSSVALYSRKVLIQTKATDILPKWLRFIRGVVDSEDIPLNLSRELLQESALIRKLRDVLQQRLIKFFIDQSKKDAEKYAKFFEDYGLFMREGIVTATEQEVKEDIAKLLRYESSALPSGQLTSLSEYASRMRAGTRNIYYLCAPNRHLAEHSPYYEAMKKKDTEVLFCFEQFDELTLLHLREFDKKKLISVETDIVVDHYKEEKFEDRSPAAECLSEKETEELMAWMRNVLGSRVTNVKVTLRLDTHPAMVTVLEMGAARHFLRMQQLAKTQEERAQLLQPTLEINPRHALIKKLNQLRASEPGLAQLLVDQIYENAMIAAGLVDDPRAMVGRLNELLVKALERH

[6] = biological target: T1, Heat shock protein HSP 90-alpha; test: Binding affinity to human HSP90-alpha N-terminal domain assessed as change in enthalpy by measuring dissociation constant at 100 uM at 25 degC by isothermal titration calorimetry
[7] = biological target: T1, Heat shock protein HSP 90-alpha; test: Binding affinity to human HSP90-alpha at protein to compound molar ratio of 1:1
[8] = biological target: T1, Heat shock protein HSP 90-alpha; test: Binding affinity to human HSP90-alpha N-terminal domain assessed as gibbs free energy change at 100 uM by isothermal titration calorimetry
[9] = biological target: T1, Heat shock protein HSP 90-alpha; test: Binding affinity to human HSP90-alpha N-terminal domain assessed as change in enthalpy at 100 uM by isothermal titration calorimetry
[10] = biological target: T1, Heat shock protein HSP 90-alpha; test: Binding affinity to human HSP90-alpha N-terminal domain assessed as change in entropy at 100 uM by isothermal titration calorimetry

Compound | DeltaCp [2] [kcal/mol.K] | IC50 [3] [µM] | IC50 [4] [µM] | IC50 (Endoplasmin) [µM] | IC50 [5] [µM] | further results
CCc1cc(C(N)=O)ccc1-n1nc(C(C)C)c2c(-n3cnc(-c4cnn(C)c4)c3)ccnc21 [TAS-116] | -0.29 | – | – | – | – | Kd [1]: 0.17 µM
CC(C)c1n[nH]c2nccc(-n3cnc(-c4cccnc4)c3)c12 | 0.56 | 293 | 89 | > 300 | > 300 | Kd [6]: 2.7 µM; Activity [7]: Active; deltaG [8]: -7.6 kcal/mol; deltaH [9]: -5.7 kcal/mol; -TdeltaS [10]: -1.9 kcal/mol
NC(=O)c1ccc(-c2nccc3c(-n4cnc(-c5ccccc5)c4)ccnc23)cc1NC1CCC(O)CC1 (stereo not given) | – | – | – | – | – | Ki [3]: 13 µM; Ki [4]: 17 µM; Ki (Endoplasmin): > 300 µM; Ki [5]: > 300 µM
CC(C)c1n[nH]c2nccc(-n3cnc(-c4cnn(C)c4)c3)c12 | – | 300 | 218 | > 300 | > 300 | –
